# Data: patent publication US6362352B1, “F18-labeled thia fatty acids and methods of making and using the same” (Duke University, priority 1999, dated 2002)
# Experiments:
# myocardium = details: cited from earlier work
# [1] = PET imaging studies in patients with ischemic cardiomyopathy; type: in vivo; details: same subjects
# Protocol: PET imaging studies were performed with 16F4THA in patients with ischemic cardiomyopathy. Conventional nuclear medicine perfusion scans were obtained in the same subjects.
# isolated rat hearts = experiment: Tracer uptake versus palmitate beta-oxidation rate in isolated perfused rat hearts; parameters: species or system Sprague Dawley rats; details: Langendorff perfusion, 0.15 mM palmitate, 5 mM glucose; both normoxic (95% oxygen) and hypoxic (35% oxygen) conditions
# Protocol: Model 4-thia analogs (16-[^18F]fluoro-4-thia-hexadecanoic acid and 12-[^18F]fluoro-4-thia-dodecanoic acid) were examined as tracers in isolated rat hearts. The perfusate was Krebs-Hensleit buffer with 1% albumin, 0.15 mM palmitate, and 5 mM glucose. Sprague Dawley rats (200-225 g) were fed ad libetum. The hearts were excised from pentobarbital-anesthetized animals and perused at 7 ml/min in Langendorff retrograde fashion. The perfusate was gassed with either 95% oxygen (normoxic) or 35% oxygen (hypoxic) gas mixture. The gases comprising the remaining fraction were nitrogen and carbon dioxide (5% for both). The tracer was administered as a bolus or as a pulse infusion into the isolated rat hearts. Pulse infusion allowed absolute quantification of ^18F accumulation rates that reflect the metabolic rate of the tracer in the heart. Clearance rates are measured during the washout phase of these experiments. Beta-oxidation rates of 9,10[^3H] palmitate were measured by collection of venous effluent samples and separation of titrated water.
smiles,measurement,setting,value
CCCC([18F])CCCCCCCSCCCCC(=O)O (stereo not shown) [Compound 14F6THA],tracking of beta-oxidation of palmitate,myocardium; a number of conditions,tracks beta-oxidation of palmitate
same,sensitivity to inhibition of beta-oxidation in myocardium,myocardium; hypoxia with normal blood flow,insensitive
"O=C(O)CCSCCCCCCCCCCCC[18F] [Compound 16F4THA, 16-[^18F]Fluoro-4-thia-hexadecanoic acid]",quality of PET scans compared with conventional nuclear medicine perfusion scans,[1],superior quality
"O=C(O)CCCCSCCCCCCCCCCC[18F] [Compound 17F6THA, 17-[^18F]Fluoro-6-thia-heptadecanoic acid]",correlation of beta-oxidation rates with uptake rates of the tracer (r),isolated rat hearts,poor correlation
